Converted amounts (≈) assume the structure as drawn.
Key:
Klebsiella = assay: Antibacterial activity against Klebsiella by agar diffusion method; format: functional
Haemophilus influenzae = assay: Antibacterial activity against Haemophilus influenzae with horse blood by agar diffusion method; format: functional
[1] = Cmax in human at 0.75 g, po bid; conditions: in vivo
[2] = AUC in human at 0.75 g, po bid; conditions: in vivo
Streptococcus pyogenes = assay: Antibacterial activity against Streptococcus pyogenes by agar diffusion method; format: functional
Bacteroides fragilis = assay: Antibacterial activity against Bacteroides fragilis by agar diffusion method; format: functional
Enterococcus = assay: Antibacterial activity against Enterococcus by agar diffusion method; format: functional
Escherichia coli = assay: Antibacterial activity against Escherichia coli by agar diffusion method; format: functional
Pseudomonas aeruginosa = assay: Antibacterial activity against Pseudomonas aeruginosa by agar diffusion method; format: functional
Clostridium perfringens = assay: microbe, parasite or virus in culture
Homo sapiens = organism: Homo sapiens; assay: Phototoxicity in human; format: organism-based; conditions: in vivo
[3] = Half life in human at 0.2 g, po bid; format: ADME, organism-based; conditions: in vivo
Streptococcus pneumoniae = assay: Antibacterial activity against Streptococcus pneumoniae by agar diffusion method; format: functional
[4] = AUC in human at 0.2 g, po bid; format: ADME, organism-based; conditions: in vivo
Staphylococcus aureus = assay: Antibacterial activity against Staphylococcus aureus by agar diffusion method; format: functional
[5] = Protein binding in human at 0.2 g, po bid; format: ADME, organism-based; conditions: in vivo, read-out: PB (converted)
[6] = Cmax in human at 0.2 g, po bid; format: ADME, organism-based; parameters: dose 0.2 g, route oral; conditions: in vivo
[7] = AUC in human at 0.6 g, po; format: ADME; conditions: in vivo
[8] = Protein binding in human at 0.6 g, po; format: ADME; conditions: in vivo, read-out: PB (converted)
[9] = Cmax in human at 0.6 g, po; format: ADME; parameters: dose 0.6 g, route oral; conditions: in vivo
[10] = Half life in human at 0.6 g, po; format: ADME; conditions: in vivo
[11] = Cmax in human at 0.4 g, po; format: ADME; parameters: dose 0.4 g, route oral; conditions: in vivo
[12] = Protein binding in human at 0.4 g, po; format: ADME; conditions: in vivo; for fraction unbound: read-out: PB (converted)
[13] = AUC in human at 0.4 g, po; format: ADME; conditions: in vivo
[14] = Half life in human at 0.4 g, po; format: ADME; conditions: in vivo
[15] = AUC in human at 0.32 g, po; format: ADME; conditions: in vivo
[16] = Protein binding in human at 0.32 g, po; format: ADME; conditions: in vivo, read-out: PB (converted)
[17] = Half life in human at 0.32 g, po; format: ADME; conditions: in vivo
[18] = Cmax in human at 0.32 g, po; format: ADME; parameters: dose 0.32 g, route oral; conditions: in vivo
[19] = Toxicity in human assessed as hepatic eosinophilia effect
[20] = Toxicity in human assessed as gastrointestinal effect
[21] = Toxicity in human assessed as arthralgia effect
[22] = Cardiotoxicity in human QTc prolongation; format: toxicity
[23] = Toxicity in human assessed as CNS effect by measuring alteration in mentation

Compound	MIC90 (Klebsiella) [µg/mL]	MIC90 (Haemophilus influenzae) [µg/mL]	MIC90 (Streptococcus pyogenes) [µg/mL]	MIC90 (Bacteroides fragilis) [µg/mL]	MIC90 (Enterococcus) [µg/mL]	MIC90 (Escherichia coli) [µg/mL]	MIC90 (Pseudomonas aeruginosa) [µg/mL]	MIC90 (Clostridium perfringens) [µg/mL]	MIC90 (Streptococcus pneumoniae) [µg/mL]	MIC90 (Staphylococcus aureus) [µg/mL]	Cmax [11] [ng/mL]	AUC [13] [ng·h/mL]	half-life [14] [h]	also measured
O=C(O)c1cn(C2CC2)c2cc(N3CCNCC3)c(F)cc2c1=O [CIPROFLOXACIN]	0.25 (≈ 0.754 µM)	0.03 (≈ 0.0905 µM)	1 (≈ 3.02 µM)	16 (≈ 48.3 µM)	4 (≈ 12.1 µM)	0.03 (≈ 0.0905 µM)								Cmax [1]: 3500 ng/mL; AUC [2]: 30000 ng·h/mL
NC1CCN(c2c(F)cc3c(=O)c(C(=O)O)cn(C4CC4)c3c2Cl)C1 (configuration not stated) [CLINAFLOXACIN]	0.03 (≈ 0.082 µM)	0.01 (≈ 0.0273 µM)	0.06 (≈ 0.164 µM)	0.25 (≈ 0.683 µM)	0.25 (≈ 0.683 µM)	0.01 (≈ 0.0273 µM)	0.5 (≈ 1.37 µM)	0.12 (≈ 0.328 µM)	0.12 (≈ 0.328 µM)	0.06 (≈ 0.164 µM)				Activity (Homo sapiens): > 10%; half-life [3]: 6 h; AUC [4]: 18000 ng·h/mL; fraction unbound [5]: 0.6; Cmax [6]: 1600 ng/mL
CCn1cc(C(=O)O)c(=O)c2cc(F)c(N3CCNCC3)nc21 [ENOXACIN]	2 (≈ 6.24 µM)	0.12 (≈ 0.375 µM)	> 64	> 64	8 (≈ 25 µM)	0.25 (≈ 0.78 µM)	> 64	> 64	64 (≈ 200 µM)	2 (≈ 6.24 µM)				AUC [7]: 29000 ng·h/mL; fraction unbound [8]: 0.4; Cmax [9]: 3700 ng/mL; half-life [10]: 2 h
C[C@H]1NCc2cc(-c3ccc4c(=O)c(C(=O)O)cn(C5CC5)c4c3OC(F)F)ccc21 [GARENOXACIN]	0.5 (≈ 1.17 µM)	0.03 (≈ 0.0704 µM)	0.25 (≈ 0.586 µM)	1 (≈ 2.35 µM)	0.5 (≈ 1.17 µM)	0.06 (≈ 0.141 µM)	16 (≈ 37.5 µM)	0.25 (≈ 0.586 µM)	0.12 (≈ 0.281 µM)	0.03 (≈ 0.0704 µM)	5800	59000	15	fraction unbound [12]: 0.13
COc1c(N2CCNC(C)C2)c(F)cc2c(=O)c(C(=O)O)cn(C3CC3)c12 (configuration not stated) [GATIFLOXACIN]	0.25 (≈ 0.666 µM)	0.03 (≈ 0.0799 µM)	0.25 (≈ 0.666 µM)	1 (≈ 2.66 µM)	1 (≈ 2.66 µM)	0.06 (≈ 0.16 µM)	4 (≈ 10.7 µM)	0.5 (≈ 1.33 µM)	0.25 (≈ 0.666 µM)	0.25 (≈ 0.666 µM)	3800	33000	12	fraction unbound [12]: 0.8
CO/N=C1\CN(c2nc3c(cc2F)c(=O)c(C(=O)O)cn3C2CC2)CC1CN (configuration not stated) [GEMIFLOXACIN]	0.25 (≈ 0.642 µM)	0.06 (≈ 0.154 µM)	0.06 (≈ 0.154 µM)		4 (≈ 10.3 µM)	0.03 (≈ 0.077 µM)	4 (≈ 10.3 µM)		0.03 (≈ 0.077 µM)	0.06 (≈ 0.154 µM)				AUC [15]: 9000 ng·h/mL; fraction unbound [16]: 0.4; half-life [17]: 7 h; Cmax [18]: 1000 ng/mL
Cc1c(F)c(N2CCNC(C)C2)cc2c1c(=O)c(C(=O)O)cn2C1CC1 (configuration not stated) [GREPAFLOXACIN]	0.12 (≈ 0.334 µM)	0.01 (≈ 0.0278 µM)	1 (≈ 2.78 µM)	8 (≈ 22.3 µM)	4 (≈ 11.1 µM)	0.06 (≈ 0.167 µM)	8 (≈ 22.3 µM)	1 (≈ 2.78 µM)	0.25 (≈ 0.696 µM)	0.12 (≈ 0.334 µM)	1400	14000	14	Activity [19]: 0.006%; protein-bound fraction ([12]; read-out: PB): 0.5; Activity [20]: > 10%; Activity [21]: 0.5 to 2%; Activity [22]: 2.9%
C[C@H]1COc2c(N3CCN(C)CC3)c(F)cc3c(=O)c(C(=O)O)cn1c23.C[C@H]1COc2c(N3CCN(C)CC3)c(F)cc3c(=O)c(C(=O)O)cn1c23.O [LEVOFLOXACIN]														Activity [21]: 0.5 to 2%; Activity [23]: 0.026%
